The target in this assay is HDAC-3 (Homo sapiens, UniProt O15379).
HDAC-3, sequence (O15379 whole entry, species assumed): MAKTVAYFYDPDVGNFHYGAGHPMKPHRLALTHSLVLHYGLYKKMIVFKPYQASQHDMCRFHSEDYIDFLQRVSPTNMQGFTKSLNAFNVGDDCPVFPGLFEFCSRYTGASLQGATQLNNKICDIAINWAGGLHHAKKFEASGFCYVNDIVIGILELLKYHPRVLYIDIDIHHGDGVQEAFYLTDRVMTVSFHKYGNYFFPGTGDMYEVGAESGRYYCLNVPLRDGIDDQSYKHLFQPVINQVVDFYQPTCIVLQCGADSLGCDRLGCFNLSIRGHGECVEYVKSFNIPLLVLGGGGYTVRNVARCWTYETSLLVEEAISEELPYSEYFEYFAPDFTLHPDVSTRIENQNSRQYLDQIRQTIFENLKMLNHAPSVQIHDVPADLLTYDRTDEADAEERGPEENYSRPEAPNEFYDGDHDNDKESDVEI
HDAC-3, sequence (Q9Y618 395-489 partner limits assumed, species assumed): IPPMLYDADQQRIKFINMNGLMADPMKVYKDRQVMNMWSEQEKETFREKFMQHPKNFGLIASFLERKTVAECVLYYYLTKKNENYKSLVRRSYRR

As for `C[S@@+]([O-])CCCCN=C=S` [LSF, (R)-1-Isothiocyanato-4-(methylsulfinyl)butane], the HILLSLOPE (HDAC-3) was −0.20. Moreover, for the setting “more subtle than Trichostatin A”, the “binding to HDAC 3 (in words)” value is reported as “specific binding”.
